Results as given in US20230233569A1 (Revolution Medicines, Inc., priority 2020, published 2023).
Like-named read-outs stand apart in the source and are kept apart here.

Experiments:
Assay in all cases: Ras-Raf disruption / FRET / MOA assay (BRAF RBD)
Type in all cases: biochemical
NRAS Q61R = NRAS Q61R (Homo sapiens, UniProt P01111+P62937, Q61R)
How it was run: (§1)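 Compound-induced Ras–Cyclophilin A ternary complex disrupting BRAF RBD binding, read as IC50 from reduced TR-FRET ratio relative to DMSO. Final: Ras-GMPPNP 12.5 nM, BRAF RBD 50 nM, Cyclophilin A 25 μM, top compound 30 μM (3-fold, 10 points); 3 h at 25 °C, then 1.5 h with detection antibodies.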

NRAS WT = NRAS WT (Homo sapiens, UniProt P01111+P62937)
How it was run: as §1

KRAS G13C = KRAS G13C (Homo sapiens, UniProt P01116+P62937, G13C); conditions: with Cyclophilin A
How it was run: as §1

KRAS G12S = KRAS G12S (Homo sapiens, UniProt P01116+P62937, G12S); conditions: with Cyclophilin A
How it was run: as §1

KRAS G13D = KRAS G13D (Homo sapiens, UniProt P01116+P62937, G13D); conditions: with Cyclophilin A
How it was run: as §1

NRAS G12C = NRAS G12C (Homo sapiens, UniProt P01111+P62937, G12C)
How it was run: as §1

KRAS WT = KRAS WT (Homo sapiens, UniProt P01116+P62937); conditions: with Cyclophilin A
How it was run: as §1

KRAS G12D = KRAS G12D (Homo sapiens, UniProt P01116+P62937, G12D); conditions: with Cyclophilin A
How it was run: as §1

KRAS Q61H = KRAS Q61H (Homo sapiens, UniProt P01116+P62937, Q61H)
How it was run: as §1

KRAS G12V = KRAS G12V (Homo sapiens, UniProt P01116+P62937, G12V); conditions: with Cyclophilin A
How it was run: as §1

NRAS Q61K = NRAS Q61K (Homo sapiens, UniProt P01111+P62937, Q61K)
How it was run: as §1

KRAS G12C = KRAS G12C (Homo sapiens, UniProt P01116+P62937, G12C); conditions: with Cyclophilin A
How it was run: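 TR-FRET read-out after 1.5 h with anti-His Eu-W1024 (10 nM) and anti-GST APC (50 nM), following 3 h at 25 °C of compound (top 30 μM, 3-fold, 10 points) with 25 μM Cyclophilin A, 12.5 nM GMPPNP-loaded K-Ras G12C and 50 nM BRAF RBD; IC50 reported.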

[1] = NRAS Q61R, read-out: NRAS Q61R FRET data IC50
[2] = NRAS WT, read-out: NRAS WT FRET data IC50
[3] = Ras-Raf disruption, read-out: KRAS G13C FRET data IC50
[4] = Ras-Raf disruption, read-out: KRAS G12S FRET data IC50
[5] = Ras-Raf disruption, read-out: KRAS G13D FRET data IC50
[6] = NRAS G12C, read-out: NRAS G12C FRET data IC50
[7] = Ras-Raf disruption, read-out: KRAS WT FRET data IC50
[8] = Ras-Raf disruption, read-out: KRAS G12D FRET data IC50
[9] = KRAS Q61H, read-out: KRAS Q61H FRET data IC50
[10] = Ras-Raf disruption, read-out: KRAS G12V FRET data IC50
[11] = NRAS Q61K, read-out: NRAS Q61K FRET data IC50
[12] = Ras-Raf disruption, read-out: KRAS G12C FRET data IC50

Chain of KRAS G12V (P01116 1-169 isoform P01116-2 G12V limits assumed): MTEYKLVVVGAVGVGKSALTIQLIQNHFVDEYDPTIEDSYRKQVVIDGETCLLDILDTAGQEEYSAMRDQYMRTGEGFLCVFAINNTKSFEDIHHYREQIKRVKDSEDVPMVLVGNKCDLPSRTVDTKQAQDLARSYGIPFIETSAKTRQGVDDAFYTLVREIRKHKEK
Chain of KRAS G12V (P62937 whole entry): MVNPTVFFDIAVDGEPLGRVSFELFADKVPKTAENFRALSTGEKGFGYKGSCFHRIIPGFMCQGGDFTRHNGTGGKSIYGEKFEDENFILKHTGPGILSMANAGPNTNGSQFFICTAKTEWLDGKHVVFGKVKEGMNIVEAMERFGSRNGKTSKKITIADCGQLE
Chain of NRAS Q61R (P01111 whole entry Q61R): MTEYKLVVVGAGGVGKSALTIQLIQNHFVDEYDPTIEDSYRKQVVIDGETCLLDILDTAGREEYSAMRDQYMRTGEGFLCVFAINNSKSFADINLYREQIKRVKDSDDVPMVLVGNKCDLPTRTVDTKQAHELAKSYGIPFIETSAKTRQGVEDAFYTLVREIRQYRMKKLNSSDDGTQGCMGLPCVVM
Chain of NRAS Q61R (P62937 whole entry): as the sequence (P62937 whole entry) above
Chain of NRAS Q61K (P01111 whole entry Q61K): as the sequence (P01111 whole entry Q61R) above, with R61K counted along it
Chain of NRAS Q61K (P62937 whole entry): as the sequence (P62937 whole entry) above
Chain of NRAS G12C (P01111 whole entry G12C): as the sequence (P01111 whole entry Q61R) above, with G12C, R61Q counted along it
Chain of NRAS G12C (P62937 whole entry): as the sequence (P62937 whole entry) above
Chain of KRAS G12C (P01116 1-169 isoform P01116-2 G12C limits assumed): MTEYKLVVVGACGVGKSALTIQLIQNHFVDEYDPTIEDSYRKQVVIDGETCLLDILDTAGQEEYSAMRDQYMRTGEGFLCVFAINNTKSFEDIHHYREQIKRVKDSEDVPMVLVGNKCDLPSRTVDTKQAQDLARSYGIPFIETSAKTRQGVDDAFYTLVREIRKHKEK
Chain of KRAS G12C (P62937 whole entry): as the sequence (P62937 whole entry) above
Chain of KRAS G12S (P01116 1-169 isoform P01116-2 G12S limits assumed): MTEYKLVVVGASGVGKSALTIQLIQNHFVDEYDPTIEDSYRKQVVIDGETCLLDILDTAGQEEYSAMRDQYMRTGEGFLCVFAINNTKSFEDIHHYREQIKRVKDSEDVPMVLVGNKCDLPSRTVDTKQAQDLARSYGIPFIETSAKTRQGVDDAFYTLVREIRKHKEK
Chain of KRAS G12S (P62937 whole entry): as the sequence (P62937 whole entry) above
Chain of KRAS G13D (P01116 1-169 isoform P01116-2 G13D limits assumed): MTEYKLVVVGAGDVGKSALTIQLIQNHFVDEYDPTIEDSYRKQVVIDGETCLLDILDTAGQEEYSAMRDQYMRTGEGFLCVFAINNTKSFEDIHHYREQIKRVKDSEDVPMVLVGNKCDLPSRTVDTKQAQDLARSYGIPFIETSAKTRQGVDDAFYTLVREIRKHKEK
Chain of KRAS G13D (P62937 whole entry): as the sequence (P62937 whole entry) above
Chain of KRAS WT (P01116 1-169 isoform P01116-2 limits assumed): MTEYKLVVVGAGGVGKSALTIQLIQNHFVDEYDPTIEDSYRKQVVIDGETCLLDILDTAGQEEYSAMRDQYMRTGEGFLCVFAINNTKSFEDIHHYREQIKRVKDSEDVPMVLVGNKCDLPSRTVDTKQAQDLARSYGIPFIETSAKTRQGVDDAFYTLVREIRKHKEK
Chain of KRAS WT (P62937 whole entry): as the sequence (P62937 whole entry) above
Chain of NRAS WT (P01111 whole entry): as the sequence (P01111 whole entry Q61R) above, with R61Q counted along it
Chain of NRAS WT (P62937 whole entry): as the sequence (P62937 whole entry) above
Chain of KRAS G12D (P01116 1-169 isoform P01116-2 G12D limits assumed): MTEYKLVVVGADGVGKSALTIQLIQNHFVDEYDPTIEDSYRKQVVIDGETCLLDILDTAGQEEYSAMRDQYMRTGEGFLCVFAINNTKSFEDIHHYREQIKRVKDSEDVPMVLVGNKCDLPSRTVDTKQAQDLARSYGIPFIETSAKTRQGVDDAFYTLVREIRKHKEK
Chain of KRAS G12D (P62937 whole entry): as the sequence (P62937 whole entry) above
Chain of KRAS G13C (P01116 1-169 isoform P01116-2 G13C limits assumed): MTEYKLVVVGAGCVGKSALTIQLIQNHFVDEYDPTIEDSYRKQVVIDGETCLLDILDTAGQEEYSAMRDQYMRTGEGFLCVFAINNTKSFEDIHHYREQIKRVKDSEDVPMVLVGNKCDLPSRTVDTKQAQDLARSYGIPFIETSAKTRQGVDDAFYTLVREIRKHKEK
Chain of KRAS G13C (P62937 whole entry): as the sequence (P62937 whole entry) above
Chain of KRAS Q61H (P01116 1-169 isoform P01116-2 Q61H limits assumed): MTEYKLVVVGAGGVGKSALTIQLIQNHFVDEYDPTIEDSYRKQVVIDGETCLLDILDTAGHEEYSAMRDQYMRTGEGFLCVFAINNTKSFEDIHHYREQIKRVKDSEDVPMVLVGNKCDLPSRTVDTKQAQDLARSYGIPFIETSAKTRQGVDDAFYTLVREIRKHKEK
Chain of KRAS Q61H (P62937 whole entry): as the sequence (P62937 whole entry) above

Row | SMILES | IC50 (NRAS Q61R; [1]) [nM] | IC50 (NRAS WT; [2]) [nM] | IC50 (KRAS G13C; [3]) [nM] | IC50 (KRAS G12S; [4]) [nM] | IC50 (KRAS G13D; [5]) [nM] | IC50 (NRAS G12C; [6]) [nM] | IC50 (KRAS WT; [7]) [nM] | IC50 (KRAS G12D; [8]) [nM] | IC50 (KRAS Q61H; [9]) [nM] | IC50 (KRAS G12V; [10]) [nM] | IC50 (NRAS Q61K; [11]) [nM] | IC50 (KRAS G12C; [12]) [nM] | other results
1 | CCn1c(-c2cccnc2[C@H](C)OC)c2c3cc(ccc31)-c1cc(O)cc(c1)C[C@H](NC(=O)[C@H](C(C)C)N(C)C(=O)N1C[C@@H]3[C@H]1CCN3C(=O)[C@@H]1CN1)C(=O)N1CCC[C@H](N1)C(=O)OCC(C)(C)C2 (atropisomer, axis not shown) [Example 251] | 1000 to 10000 | 100 to 1000 | 10 to 100 | 100 to 1000 | 1000 to 10000 | 10 to 100 | 100 to 1000 | 1000 to 10000 | 100 to 1000 | 100 to 1000 | 1000 to 10000 | 10 to 100 | –
2 | CCn1c(-c2cccnc2[C@H](C)OC)c2c3cc(ccc31)-c1cc(O)cc(c1)C[C@H](NC(=O)[C@@H](COC1CCN(C(=O)[C@H]3CN3)CC1)C(C)C)C(=O)N1CCC[C@H](N1)C(=O)OCC(C)(C)C2 (atropisomer, axis not shown) [Example 211] | 1000 to 10000 | 100 to 1000 | 100 to 1000 | 1000 to 10000 | 1000 to 10000 | 10 to 100 | 100 to 1000 | 1000 to 10000 | 100 to 1000 | 1000 to 10000 | 1000 to 10000 | 10 to 100 | –
3 | CCn1c(-c2cccnc2[C@H](C)OC)c2c3cc(ccc31)-c1cc(cc(C(F)F)c1)C[C@H](NC(=O)[C@H](C1CCCC1)N(C)C(=O)CN(C)C(=O)[C@@H]1N[C@@H]1C1CC1)C(=O)N1CCC[C@H](N1)C(=O)OCC(C)(C)C2 [Example 320] | – | – | – | – | – | – | – | – | – | – | – | – | IC50 (NRAS Q61R): 1000 to 10000 nM; IC50 (NRAS WT): 1000 to 10000 nM; IC50 (KRAS G13C; KRAS G13C FRET data IC50, Ras-Raf disruption): 100 to 1000 nM; IC50 (KRAS G12S; KRAS G12S FRET data IC50, Ras-Raf disruption): 1000 to 10000 nM; IC50 (KRAS G13D; KRAS G13D FRET data IC50, Ras-Raf disruption): 1000 to 10000 nM; IC50 (NRAS G12C; NRAS G12C FRET data IC50, NRAS G12C): 100 to 1000 nM; IC50 (KRAS WT; KRAS WT FRET data IC50, Ras-Raf disruption): 1000 to 10000 nM; IC50 (KRAS G12D; KRAS G12D FRET data IC50, Ras-Raf disruption): 1000 to 10000 nM; IC50 (KRAS Q61H): 100 to 1000 nM; IC50 (KRAS G12V; KRAS G12V FRET data IC50, Ras-Raf disruption): 1000 to 10000 nM; IC50 (NRAS Q61K): 1000 to 10000 nM; IC50 (KRAS G12C; KRAS G12C FRET data IC50, Ras-Raf disruption): 100 to 1000 nM
4 | CCn1c(-c2cccnc2[C@H](C)OC)c2c3cc(ccc31)-c1csc(n1)C[C@H](NC(=O)[C@H](C(C)C)N(C)C(=O)N(C)C1CN(C(=O)[C@@H]3CN3)C1)C(=O)N1CCC[C@H](N1)C(=O)OCC(C)(C)C2 [Example 221] | 100 to 1000 | 100 to 1000 | 100 to 1000 | 100 to 1000 | 100 to 1000 | 100 to 1000 | 100 to 1000 | 1000 to 10000 | 100 to 1000 | 100 to 1000 | 100 to 1000 | 100 to 1000 | –
5 | CCn1c(-c2cccnc2[C@H](C)OC)c2c3cc(ccc31)-c1cc(O)cc(c1)C[C@H](NC(=O)[C@H](C(C)C)N(C)C(=O)C1CCN(S(=O)(=O)[C@H]3CN3C)CC1)C(=O)N1CCC[C@H](N1)C(=O)OCC(C)(C)C2 (single isomer, unassigned) [Example 108] | 100 to 1000 | 100 to 1000 | 10 to 100 | 100 to 1000 | 100 to 1000 | 100 to 1000 | 100 to 1000 | 1000 to 10000 | 10 to 100 | 100 to 1000 | 100 to 1000 | 100 to 1000 | –
6 | CCn1c(-c2cccnc2[C@H](C)OC)c2c3cc(ccc31)-c1cc(O)cc(c1)C[C@H](NC(=O)[C@H](C(C)C)N(C)C(=O)[C@H]1CCN(C(=O)C3(C)CO3)C1)C(=O)N1CCC[C@H](N1)C(=O)OCC(C)(C)C2 (stereo partly drawn) [Example 332] | 100 to 1000 | 10 to 100 | 10 to 100 | 10 to 100 | 10 to 100 | 10 to 100 | 10 to 100 | 100 to 1000 | 10 to 100 | 10 to 100 | 100 to 1000 | 10 to 100 | –
7 | CCn1c(-c2cccnc2[C@H](C)OC)c2c3cc(ccc31)-c1cc(O)cc(c1)C[C@H](NC(=O)[C@H](C(C)C)N(C)C(=O)[C@H]1CCCN(C(=O)[C@@H]3CN3)C1)C(=O)N1CCC[C@H](N1)C(=O)OCC(C)(C)C2 [Example 236] | 1000 to 10000 | 100 to 1000 | 100 to 1000 | 100 to 1000 | 100 to 1000 | 10 to 100 | 100 to 1000 | 100 to 1000 | 100 to 1000 | 100 to 1000 | 1000 to 10000 | 10 to 100 | –
8 | CCn1c(-c2cccnc2[C@H](C)OC)c2c3cc(ccc31)-c1cc(O)cc(c1)C[C@H](NC(=O)[C@H](C(C)C)N(C)C(=O)[C@H]1CCN(C(=O)C3CO3)C1)C(=O)N1CCC[C@H](N1)C(=O)OCC(C)(C)C2 (stereo partly drawn) [Example 330] | 100 to 1000 | 10 to 100 | < 10 | 10 to 100 | 10 to 100 | < 10 | 10 to 100 | 10 to 100 | 10 to 100 | 10 to 100 | 100 to 1000 | < 10 | –
9 | CCn1c(-c2cccnc2[C@H](C)OC)c2c3cc(ccc31)-c1cc(O)cc(c1)C[C@H](NC(=O)[C@H](C(C)C)N(C)C(=O)CN(C)S(=O)(=O)[C@H]1CN1C)C(=O)N1CCC[C@H](N1)C(=O)OCC(C)(C)C2 (single isomer, unassigned) [Example 91] | 100 to 1000 | 10 to 100 | 10 to 100 | 10 to 100 | 100 to 1000 | 10 to 100 | 10 to 100 | 100 to 1000 | 10 to 100 | 100 to 1000 | 100 to 1000 | 10 to 100 | –
